“Also recorded” adds a separate entry of the source.
How the values were obtained:
[1] = tested on: TCR-induced activation of the proximal IL-2 promoter (NFAT/AP-1) in Jurkat TAg T cells; experiment: NFAT/AP-1 dual luciferase reporter assay; format: cell-based; details: for NFAT/AP-1 signaling in unstimulated sample / NFAT/AP-1 activation in TCR-stimulated sample compared to DMSO control: 5 μM compound; for NFAT/AP-1 signaling in unstimulated sample: no TCR stimulation; for NFAT/AP-1 signaling in unstimulated sample / NFAT/AP-1 activation in TCR-stimulated sample compared to DMSO control / dose-dependence of TCR-induced NFAT/AP-1 activation: Jurkat TAg T cells; for NFAT/AP-1 activation in TCR-stimulated sample compared to DMSO control: 45 min, then OKT3 6 hours; for dose-dependence of TCR-induced NFAT/AP-1 activation: dose-response 0.1 to 30 μM
[2] = tested on: Lck-pY394 and pζ-chain phosphorylation in Jurkat TAg T cells; experiment: Immunoblotting of Lyp's substrates Lck-pY394 and pζ-chain after TCR stimulation; format: cell-based; details: 45 min at 37°C, then TCR stimulation, immunoblot
recombinant Lyp = recombinant Lyp (Homo sapiens, UniProt Q9Y2R2); details: ratio of IC50 values
Sequence of recombinant Lyp (Q9Y2R2 2-309): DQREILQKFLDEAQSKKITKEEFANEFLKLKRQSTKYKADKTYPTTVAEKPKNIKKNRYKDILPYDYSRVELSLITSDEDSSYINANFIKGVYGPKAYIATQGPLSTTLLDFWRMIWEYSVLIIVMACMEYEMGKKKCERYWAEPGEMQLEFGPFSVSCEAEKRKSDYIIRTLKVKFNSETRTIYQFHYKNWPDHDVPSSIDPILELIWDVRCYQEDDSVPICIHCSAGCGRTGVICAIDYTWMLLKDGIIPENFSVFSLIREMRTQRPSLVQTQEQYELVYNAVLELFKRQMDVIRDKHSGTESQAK

Row | Structure (SMILES) | NFAT/AP-1 signaling in unstimulated sample [1] | compound concentration at which NFAT/AP-1 activation was augmented [1] | NFAT/AP-1 activation in TCR-stimulated sample compared to DMSO control [1] | dose-dependence of TCR-induced NFAT/AP-1 activation [1] | concentration at which pTyr levels of Lck-pY394 and pζ-chain were augmented [2] | improvement of Lyp inhibitory activity over the original compound 478 (recombinant Lyp)
1 | O=C(CCCn1cc(-c2c(-c3ccccc3)oc3cc(O)c(C(=O)O)cc23)nn1)Nc1ccc(Br)c2ccccc12 [Compound 482] | substantially augmented signaling; also recorded: enhanced T cell signaling in a non TCR-mediated manner |  |  |  |  | 
2 | COC(=O)c1cc2c(-c3cn(CCCC(=O)Nc4ccc(Cl)c5ccccc45)nn3)c(-c3ccccc3)oc2cc1O [Compound 486, Methyl 3-(1-(4-(4-chloronaphthalen-1-ylamino)-4-oxobutyl)-1H-1,2,3-triazol-4-yl)-6-hydroxy-2-phenylbenzofuran-5-carboxylate] |  | submicromolar | considerable higher NFAT/AP-1 activation | dose-dependent effect | 5 μM | 
3 | Cc1ccc(-c2oc3cc(O)c(C(=O)O)cc3c2-c2cn(CCCC(=O)Nc3cccc4cccnc34)nn2)cc1 [Compound 523] |  |  | considerable higher NFAT/AP-1 activation |  |  | 
4 | O=C(CCCn1cc(-c2c(-c3ccccc3)oc3cc(O)c(C(=O)O)cc23)nn1)Nc1cccc2ccccc12 [Compound 478, reference compound] |  |  | did not show an effect |  |  | 
5 | Cc1ccc(-c2oc3cc(O)c(C(=O)O)cc3c2-c2cn(CCC(=O)Nc3cccc4ccccc34)nn2)cc1 [Compound 530] |  |  | considerable higher NFAT/AP-1 activation |  |  | 
6 | O=C(CCn1cc(-c2c(-c3ccccc3)oc3cc(O)c(C(=O)O)cc23)nn1)Nc1cccc2ccccc12 [Compound 495] |  |  | considerable higher NFAT/AP-1 activation |  |  | 
7 | O=C(CCCCn1cc(-c2c(-c3ccccc3)oc3cc(O)c(C(=O)O)cc23)nn1)Nc1cccc2ccccc12 [Compound 496] |  |  | considerable higher NFAT/AP-1 activation |  |  | 
8 | COc1ccc2nc(NC(=O)CCCn3cc(-c4c(-c5cccc(C)c5)oc5cc(O)c(C(=O)O)cc45)nn3)sc2c1 [Compound 630, 6-hydroxy-3-(1-(4-(6-methoxybenzo[d]thiazol-2-ylamino)-4-oxobutyl)-1H-1,2,3-triazol-4-yl)-2-m-tolylbenzofuran-5-carboxylic acid] |  | ≥ 3 µM | considerable higher NFAT/AP-1 activation | dose-dependent effect | 30 μM | 
9 | Cc1ccc(-c2oc3cc(O)c(C(=O)O)cc3c2-c2cn(CCCC(=O)Nc3ccc(Cl)c4ccccc34)nn2)cc1 [Compound 525, 3-(1-(4-(4-chloronaphthalen-1-ylamino)-4-oxobutyl)-1H-1,2,3-triazol-4-yl)-6-hydroxy-2-p-tolylbenzofuran-5-carboxylic acid] |  | submicromolar | considerable higher NFAT/AP-1 activation | dose-dependent effect | 30 μM | 
10 | Cc1ccc(-c2oc3cc(O)c(C(=O)O)cc3c2-c2cn(CCCC(=O)Nc3cccc4ccccc34)nn2)cc1 [Compound 522, 6-hydroxy-3-(1-(4-(naphthalen-1-ylamino)-4-oxobutyl)-1H-1,2,3-triazol-4-yl)-2-p-tolylbenzofuran-5-carboxylic acid] |  | submicromolar | considerable higher NFAT/AP-1 activation | dose-dependent effect | 10 μM | 
11 | Cc1ccc(-c2oc3cc(O)c(C(=O)O)cc3c2-c2cn(CCCC(=O)Nc3ccc(Br)c4ccccc34)nn2)cc1 [Compound 526] | substantially augmented signaling; also recorded: enhanced T cell signaling in a non TCR-mediated manner |  | modest |  |  | 17 fold
12 | COc1ccc(-c2oc3cc(O)c(C(=O)O)cc3c2-c2cn(CCCC(=O)Nc3cccc4ccccc34)nn2)cc1 [Compound 584, 6-hydroxy-2-(4-methoxyphenyl)-3-(1-(4-(naphthalen-1-ylamino)-4-oxobutyl)-1H-1,2,3-triazol-4-yl)benzofuran-5-carboxylic acid] |  | submicromolar | considerable higher NFAT/AP-1 activation | dose-dependent effect | 3 μM | 

— paper PMC3025750 (Journal of medicinal chemistry, 2010)
